Among the test systems are A498 renal; ACHN renal; EKVX NSCLC; HCT-116 colon; MALME-3M melanoma; MOLT-4 leukemia; OVCAR-8 ovarian; SF-539 CNS; SNB-19 CNS; SW-620 colon.
Holding throughout (test): NCI-60 cell line screen, 48 h

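Tested at 5 concentrations; 48 h exposure; 96-well plates; endpoints linearly interpolated, else capped at highest concentration. The concentration for 50% growth inhibition is given as GI50. TGI is the concentration that stops growth completely.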

Take `O=c1c(O)cccc2cc(O)c(O)c(O)c12`: the GI50 was 4.16 µM with A498 renal; 7.82 µM in the assay on ACHN renal; 19.1 µM with EKVX NSCLC; 7.67 µM in the assay with HCT-116 colon; 4.99 µM in the assay with MALME-3M melanoma; 16.9 µM with MOLT-4 leukemia. The GI50 with OVCAR-8 ovarian was 27.3 µM; with SF-539 CNS, 5.01 µM; in the assay on SNB-19 CNS, 8.44 µM; with SW-620 colon, 20.2 µM. Further, the TGI in the assay with A498 renal, with ACHN renal, with EKVX NSCLC, in the assay with HCT-116 colon, in the assay with MALME-3M melanoma and in the assay on MOLT-4 leukemia was above 100 µM in each case. The TGI in the assay on OVCAR-8 ovarian, with SF-539 CNS, with SNB-19 CNS and with SW-620 colon was above 100 µM in each case.
For `CN(C)CCNC(=O)c1cccc2c(Nc3ccc(S(N)(=O)=O)cc3)c3ccccc3nc12`, the TGI is 7.08 µM in the assay with A498 renal; 5.2 µM in the assay with ACHN renal; 10.2 µM with EKVX NSCLC; 1.74 µM in the assay on HCT-116 colon; 3.88 µM in the assay with MALME-3M melanoma; above 100 µM with MOLT-4 leukemia. For the same molecule, the TGI with OVCAR-8 ovarian amounted to 3.73 µM; in the assay on SF-539 CNS, 3.23 µM; in the assay with SNB-19 CNS, 10.7 µM; in the assay on SW-620 colon it was 1.96 µM.
On to `Clc1ccc(C2=Nn3c(nnc3-c3cc(Cl)cc(Cl)c3Cl)SC2)cc1`, for which the GI50 in the assay with A498 renal was 31.1 µM; with ACHN renal, 15.5 µM; with EKVX NSCLC, 45.1 µM; in the assay on HCT-116 colon it was 22.1 µM; in the assay on MALME-3M melanoma it was 10.5 µM; with MOLT-4 leukemia, 38.8 µM. The GI50 is 38.3 µM in the assay on OVCAR-8 ovarian, 20.1 µM with SF-539 CNS, 15.6 µM with SNB-19 CNS and 17.4 µM with SW-620 colon. The TGI with A498 renal is above 100 µM; with ACHN renal, 45.5 µM; in the assay on EKVX NSCLC, above 100 µM; with HCT-116 colon, above 100 µM; in the assay on MALME-3M melanoma it was 29.2 µM; in the assay on MOLT-4 leukemia, above 100 µM. In addition, the TGI with OVCAR-8 ovarian is above 100 µM; in the assay with SF-539 CNS, 48.3 µM; in the assay on SNB-19 CNS it was 36.2 µM; with SW-620 colon, above 100 µM.
`Cc1nccc2c3ccc(OCc4cn(-c5ccc(Cl)cc5)nn4)cc3n(CCCc3ccccc3)c12`: the GI50 was above 33.3 µM with A498 renal; 1.57 µM with ACHN renal; 12.3 µM in the assay on EKVX NSCLC; 2.14 µM with HCT-116 colon; 0.745 µM in the assay with MALME-3M melanoma; 6.97 µM in the assay on MOLT-4 leukemia. The GI50 is 1.21 µM in the assay on OVCAR-8 ovarian, 4.24 µM in the assay on SF-539 CNS, above 33.3 µM in the assay on SNB-19 CNS and 2.2 µM in the assay with SW-620 colon. The TGI is above 33.3 µM with A498 renal; 8.5 µM in the assay with ACHN renal; above 33.3 µM in the assay with EKVX NSCLC; above 33.3 µM in the assay with HCT-116 colon; 2.79 µM in the assay with MALME-3M melanoma; above 33.3 µM in the assay on MOLT-4 leukemia. The TGI in the assay with OVCAR-8 ovarian was 4.22 µM; in the assay on SF-539 CNS, 10.6 µM; with SNB-19 CNS, above 33.3 µM; in the assay on SW-620 colon, above 33.3 µM.
As to `CN1CCN(c2cc(C(=O)Nc3cc4cc(-c5cnn(C)c5)ccc4cn3)ccn2)CC1`, the GI50 was 0.0605 µM with A498 renal; 0.0597 µM in the assay on ACHN renal; 0.302 µM in the assay with EKVX NSCLC; 0.0376 µM in the assay with HCT-116 colon; 0.155 µM in the assay with MALME-3M melanoma; 0.221 µM in the assay on MOLT-4 leukemia. In addition, the GI50 in the assay with OVCAR-8 ovarian was 0.225 µM; in the assay with SF-539 CNS, 0.153 µM; with SNB-19 CNS it was 0.121 µM; in the assay on SW-620 colon, 0.0422 µM. The TGI with A498 renal was determined as 0.447 µM; in the assay on ACHN renal it was 0.548 µM; with EKVX NSCLC, 14.3 µM; in the assay with HCT-116 colon it was 11.4 µM; in the assay with MALME-3M melanoma, 0.584 µM; with MOLT-4 leukemia, 18 µM. The TGI in the assay with OVCAR-8 ovarian was 11.7 µM; in the assay with SF-539 CNS, 2.38 µM; with SNB-19 CNS, 12 µM; in the assay on SW-620 colon, 11.7 µM.
For the molecule `CN1CCN(c2ccc(Nc3nc(N)c(C(=O)c4ccc5c(c4)OCCO5)s3)cc2)CC1`, the GI50 in the assay with A498 renal was 2.3 µM; in the assay with ACHN renal it was 1.85 µM; in the assay with HCT-116 colon, 2.27 µM; in the assay on MALME-3M melanoma, 2.72 µM; in the assay on MOLT-4 leukemia it was 1.89 µM; with OVCAR-8 ovarian it was 5.94 µM. Moreover, the GI50 was 4.25 µM in the assay with SF-539 CNS, 4.14 µM in the assay with SNB-19 CNS and 3.63 µM in the assay with SW-620 colon. Also, the TGI was 6.22 µM with A498 renal; 6.57 µM in the assay on ACHN renal; above 15.5 µM in the assay with HCT-116 colon; 8.34 µM in the assay on MALME-3M melanoma; 10 µM in the assay with MOLT-4 leukemia; 16.7 µM with OVCAR-8 ovarian. In addition, the TGI with SF-539 CNS was 8.33 µM; in the assay on SNB-19 CNS, 24.3 µM; in the assay with SW-620 colon, above 17.7 µM.
On to `CN(C)c1ncc(-c2ccc(C(F)(F)F)cc2)c(NC2CCCCCC2)n1`, for which the GI50 with A498 renal is 12.4 µM; with ACHN renal it was 16 µM; in the assay with HCT-116 colon, 10.4 µM; with MALME-3M melanoma, 14.4 µM; in the assay with MOLT-4 leukemia, 14.8 µM; in the assay with OVCAR-8 ovarian, 25.8 µM. For the same molecule, the GI50 in the assay on SF-539 CNS was 21.7 µM; with SNB-19 CNS, 15.6 µM; in the assay on SW-620 colon, 15 µM. Further, the TGI was 29.4 µM in the assay with A498 renal; 31.2 µM in the assay on ACHN renal; 53.4 µM in the assay on HCT-116 colon; 40.4 µM in the assay with MALME-3M melanoma; 34.7 µM with MOLT-4 leukemia; above 100 µM in the assay on OVCAR-8 ovarian. In addition, the TGI in the assay on SF-539 CNS is 55.2 µM; with SNB-19 CNS it was 37.5 µM; in the assay with SW-620 colon, 37.3 µM.
On to `NC(=O)c1coc(C2OC(CO)C(O)C2O)n1` (stereo not given), for which the TGI in the assay on A498 renal, with ACHN renal, in the assay on EKVX NSCLC, with HCT-116 colon, in the assay on MALME-3M melanoma and in the assay with MOLT-4 leukemia was above 100 µM each time. The TGI in the assay with SF-539 CNS, in the assay on SNB-19 CNS and in the assay on SW-620 colon was above 100 µM each time.

For the origin of these results see PubChem BioAssay (NCI).
